Like-named read-outs stand apart in the source and are kept apart here.
Tests used:
human GLP-1R [1] = target: T1, human GLP-1R (Homo sapiens, UniProt P43220, C347A); assay: HTRF cAMP accumulation, HEK293 cells; type: cell-based
T1 construct: gene GLP1R; full-length receptor expressed in HEK293 cells; C347A mutant carries a 1xFLAG tag
Description: (§1) HTRF cAMP accumulation, HEK293 cells on human GLP-1R

human GLP-1R [2] = target: T2, human GLP-1R (Homo sapiens, UniProt P43220); assay: HTRF cAMP accumulation, HEK293 cells; type: cell-based
T2 construct: gene GLP1R; full-length receptor expressed in HEK293 cells; C347A mutant carries a 1xFLAG tag
T2 sequence (P43220 24-463): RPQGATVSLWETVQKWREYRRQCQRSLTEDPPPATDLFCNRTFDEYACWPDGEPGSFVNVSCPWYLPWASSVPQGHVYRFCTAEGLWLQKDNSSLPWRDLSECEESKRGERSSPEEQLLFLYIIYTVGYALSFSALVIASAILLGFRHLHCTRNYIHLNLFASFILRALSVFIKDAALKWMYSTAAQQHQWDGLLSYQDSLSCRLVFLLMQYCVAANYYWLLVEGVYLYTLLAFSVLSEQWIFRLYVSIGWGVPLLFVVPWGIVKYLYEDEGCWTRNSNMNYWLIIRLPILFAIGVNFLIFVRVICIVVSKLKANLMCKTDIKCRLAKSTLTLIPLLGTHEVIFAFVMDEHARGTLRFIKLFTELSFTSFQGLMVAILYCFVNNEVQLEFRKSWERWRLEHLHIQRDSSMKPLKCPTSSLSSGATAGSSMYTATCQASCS
Description: as §1

human CatL = target: T3, human CatL (Homo sapiens, UniProt P07711); assay: fluorogenic Z-Phe-Arg-AMC hydrolysis; type: biochemical
T3 construct: gene CTSL; commercial cathepsin L (Calbiochem)
T3 sequence (P07711 114-288 limits assumed): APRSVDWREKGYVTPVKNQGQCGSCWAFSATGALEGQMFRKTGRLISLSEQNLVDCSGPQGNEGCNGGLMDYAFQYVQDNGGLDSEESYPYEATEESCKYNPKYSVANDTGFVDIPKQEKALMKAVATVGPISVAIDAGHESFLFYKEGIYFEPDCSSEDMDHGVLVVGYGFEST
T3 sequence (P07711 292-333 limits assumed): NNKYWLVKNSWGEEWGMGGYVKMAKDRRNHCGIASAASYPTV

human GLP-1R [3] = target: T2, human GLP-1R; assay: anti-FLAG immunoprecipitation, PAGE fluorography; type: cell-based; conditions: 500 nM [3H]BETP, 2 h, 37 °C, GLP-1R-3xFLAG in HEK293; covalent; labelled compound
[4] = read-out: EC50, C347A (nM) (S.D., n)
[5] = read-out: Compound, EC50 WT (nM) (S.D., n)
[6] = read-out: Compound, EC50, C347A (nM) (S.D., n)
[7] = read-out: Compound, EC50, WT (nM) (S.D., n)

T1 sequence (P43220 24-463 C347A): as the sequence (P43220 24-463) above, with C324A counted along it

Row | EC50 (human GLP-1R [1]; [4]) | EC50 (human GLP-1R [2]; [5]) | IC50 (human CatL; read-out: CatL,^c IC50) | EC50 (human GLP-1R [1]; [6]) | SMILES | other results
1 | > 30000 nM | 1300 nM | > 33 µM |  | CC[S+]([O-])c1nc(-c2cccc(OCc3ccccc3)c2)cc(C(F)(F)F)n1 (centres unmarked) [BETP, 4-(3-benzyloxyphenyl)-2-ethylsulfinyl-6-(trifluoromethyl)pyrimidine] | anti-FLAG immunoprecipitation, PAGE fluorography (human GLP-1R [3]): The finding that [^3H]BETP irreversibly labels the GLP-1R
2 |  |  |  |  | O=C(NCc1ccccc1)[C@H](Cc1ccccc1)NC(=O)[C@H]1O[C@@H]1C(=O)NCCc1ccc(O)cc1 [CAA0225, (2S,3S)-N2-[(1S)-1-benzyl-2-(benzylamino)-2-oxo-ethyl]-N3-[2-(4-hydroxyphenyl)ethyl]oxirane-2,3-dicarboxamide, reference compound] | IC50 (human CatL; read-out: IC50): 0.006 µM
3 | > 30000 nM | 860 nM |  |  | Cc1nnc(Sc2nc3cc(Cl)c(Cl)cc3nc2C(F)(F)F)s1 [compound 1] | 
4 | > 30000 nM | 25 nM |  |  | CC(C)(C)Nc1nc2cc(Cl)c(Cl)cc2nc1S(C)(=O)=O [compound 2] | 
5 | > 30000 nM | 4700 nM |  |  | FC(F)(F)c1nc2cc(Cl)c(Cl)cc2nc1Cl [compound 3] | 
6 | > 30000 nM | 1500 nM |  |  | CC1(C)CC(=O)c2c(S(C)(=O)=O)sc(-c3nnc(-c4ccc(C(C)(C)C)cc4)o3)c2C1 [compound 5] | 
7 | > 30000 nM | 1430 nM |  |  | CC1(C)CC(=O)c2c(S(C)(=O)=O)sc(C(=O)c3ccc(-c4ccccc4)cc3)c2C1 [compound 6] | 
8 |  | > 30000 nM |  |  | FC(F)(F)c1nc2ccccc2nc1Sc1ccc(Cl)cc1 [compound 7] | 
9 |  | > 30000 nM |  |  | O=C(Oc1cccc(-c2cn3cc(C(F)(F)F)cc(Cl)c3n2)c1)C1CCCCC1 [compound 8] | 
10 | 1400 nM | 1500 nM |  |  | Cc1ccc(-c2cccc(C(=O)NC(Cc3ccc(-c4noc(-c5ccc(NC(=O)OC(C)(C)C)cc5)n4)c(F)c3)C(=O)O)c2)cc1 (centres unmarked) [compound 9] | 
11 |  |  | > 33 µM | > 30000 nM | Clc1nc2c(-c3ccccc3)nnn2c2ccccc12 [compound 11] | EC50 (human GLP-1R [2]; [7]): 7000 nM
12 |  |  | > 33 µM | > 30000 nM | CS(=O)(=O)c1nc(-c2ccccc2)cc(-c2ccccc2)c1C#N [compound 12] | EC50 (human GLP-1R [2]; [7]): 6000 nM
13 |  |  | > 33 µM | > 30000 nM | CCOC(=O)c1ccc(N2Cc3ccccc3C(=Cc3ccc(Br)cc3)C2=N)cc1 [compound 13] | EC50 (human GLP-1R [2]; [7]): 1000 nM
14 |  |  | > 33 µM | > 30000 nM | Clc1nc2ccc3nsnc3c2nc1Cl [compound 14] | 
15 |  |  | 25 µM | > 30000 nM | O=S(=O)(c1ccccc1)c1nc(-c2ccccc2)ns1 [compound 15] | EC50 (human GLP-1R [2]; [7]): 1300 nM
16 |  |  | 12 µM | > 30000 nM | CS(=NC(=O)Nc1ccc(Cl)cc1)c1sc(Cl)c2c1C(=O)CCC2 (centres unmarked) [compound 16] | EC50 (human GLP-1R [2]; [7]): 5200 nM
17 |  |  | 8 µM | > 30000 nM | O=[N+]([O-])c1ccc2nc(S(=O)(=O)c3ccc(Cl)cc3)sc2c1 [compound 17] | 
18 |  |  |  | > 30000 nM | CC(=O)NC1=C(Cl)C(=O)c2ccccc2C1=O [compound 18] | 
19 |  |  |  | > 30000 nM | O=C1C=CC(=O)N1c1cccc(C(F)(F)F)c1 [compound 19] | 
20 |  | > 30000 nM |  |  | CCSc1nc(-c2cccc(OCc3ccccc3)c2)cc(C(F)(F)F)n1 [th-BETP, 4-(3-benzyloxyphenyl)-2-ethylsulfanyl-6-(trifluoromethyl)pyrimidine] | 
